Test system: MART-1-specific TCR transduced T cells cultured with MART-1-epitope transduced BxPC3 cells
Experiment: T cell activation markers in co-culture of MART-1-specific TCR-T cells with MART-1+ BxPC3 cells
Format: cell-based, human
Details: single agent: 5 μM AR-C, 10 μg/ml atezolizumab or 10 μg/ml durvalumab, 6-24 hours, CD8+ MART-1-specific TCR+ population (FIG. 10)
From the text: FIG. 10. […] Untreated cells served as the control.
MART-1 specific T cells were generated as described (Mezzadra et al., Nature 549, 106-110 (2017); Jorritsma et al., Blood 110 (10): 3564-3572. (2007)). To generate CD33-specific chimeric antigen receptor (CAR) T cells, a CD33Hul95-CD28Z CAR (described in WO 2019/178382) cassette was cloned into a retroviral vector, and the resulting virus was used to transduce T cells as described (Mezzadra et al., Nature 549, 106-110 (2017); Jorritsma et al., Blood 110 (10): 3564-3572. (2007)).
MART1-specific CD8+ T cells and MART1 epitope-expressing cancer cells were mixed at a ratio of 1:16 to 1:4. […] T cell activation was assessed by surface staining with anti-CD137-BV421 (4-1BB, Biolegend), anti-CD69-APC/Fire™ 750 (FN50, Biolegend), anti-CD25-AF700 (BC96, Biolegend) antibodies and intracellular staining with anti-IL-2-PE/Cy7 (MQ1-17H12, Biolegend), anti-IFN-7-BV421 (4S.B3, Biolegend), anti-TNF-α-BV785 (MAb11, Biolegend) antibodies, followed by flow cytometry analysis. For intracellular staining, brefeldin A (Biolegend) was added to the cell culture medium 4 h before cells were harvested. The viability of cancer cells that grow in suspension including THP-1 cells was assessed by flow cytometry-based absolute cell counting using AccuCount beads (Spherotech). For adherent cancer cells including BxPC3 and MCF7, the cell viability was quantified using CellTiter-Blue Cell Viability Assay (Promega).

Cc1ccc2c(c1)C=Cc1cc(C)ccc1C2c1cn(Cc2ccc(C(=O)Nc3nn[nH]n3)o2)c(=O)[nH]c1=S [AR-C 118925XX]
elevated: expression of CD25 on T cells | expression of CD69 on T cells | expression of CD137 on T cells

Source: patent publication US20250281610A1, “P2RY2 ACTIVITY MODULATORS” (Deutsches Krebsforschungszentrum Stiftung des öffentlichen …, priority 2022, published 2025)
